Each compound was assayed on HIV-1 (assay: inhibition of HIV-1; reduction of cytopathogenic effect in virus-infected Leu-3a-positive CEM cells (MTT assay)). Conditions: Human immunodeficiency virus 1, CCRF-CEM, multiplicity of infection 0.1, MTT read on 7th to 9th day post-infection.
Type: cell-based, strain HTVL-IIIB
Procedure: Inhibitory activity against HIV-1 was shown by tests involving plating of susceptible human host cells which are syncytium-sensitive with and without virus in microculture plates, adding various concentrations of the test compound, incubating the plates for 7 to 9 days (during which time infected, non-drug treated control cells are largely or totally destroyed by the virus), and then determining the remaining number of viable cells with a colorometric endpoint.
Various illustrative compounds synthesized above were tested for inhibition of HIV-1 in a test which measured reduction of cytopathogenic effect in virus-infected syncytium-sensitive Leu-3a-positive CEM cells grown in tissue culture as follows:
Tissue culture plates were incubated at 37° C. in a humidified, 5% CO2 atmosphere and observed microscopically for toxicity and/or cytopathogenic effect (CPE). At 1 hour prior to infection each test article was prepared from the frozen stock, and a 20 μl volume of each dilution (prepared as a 10× concentration) was added to the appropriate wells of both infected and uninfected cells.
Assays were done in 96-well tissue culture plates. CEM cells were treated with polybrene at a concentration of 2 μg/ml, and an 80 μl volume of cells (1×10^4 cells) was dispensed into each well. A 100 μl volume of each test article dilution (prepared as a 2× concentration) was added to 5 wells of cells, and the cells were incubated at 37° C. for 1 hour. A frozen culture of HIV-1, strain HTVL-IIIB, was diluted in culture medium to a concentration of 5×10^4 TCID50 per ml, and a 20 μl volume (containing 10^3 TCID50 of virus) was added to 3 of the wells for each test article concentration. […] A 20 μl volume of normal culture medium was added to the remaining wells to allow evaluation of cytotoxicity. Each plate contained 6 wells of untreated, uninfected, cell control samples and 6 wells of untreated, infected, virus control samples.
On the 7th to 9th day post-infection, the cells in each well were resuspended and a 100 μl sample of each cell suspension was removed for use in an MTT assay. A 20 μl volume of a 5 mg/ml solution of 3-(4,5-dimethylthiazol-2-yl)-2,5-diphenyltetrazolium bromide (MTT) was added to each 100 μl cell suspension, and the cells were incubated at 37° C. in 5% CO2 for 4 hours. […] A 100 μl volume of a solution of 10% sodium dodecyl sulfate in 0.01N hydrochloric acid was added to each sample, and the samples were incubated overnight. The absorbance at 590 nm was determined for each sample using a Molecular Devices Vmax microplate reader. This assay detects drug-induced suppression of viral CPE, as well as drug cytotoxicity, by measuring the generation of MTT-formazan by surviving cells.
For COCCCCCCCCCCCC(=O)O [Example 1, 12-Methoxydodecanoic Acid], the EC50 was 4.3 µM. In the case of COCCCCCCCOCCCC(=O)O [Example 5, 4-[(7-Methoxyheptyl)oxy]butanoic Acid], the EC50 is reported as greater than 430 µM. In the case of CCCCCCCCCCOCCC#N [Example 6, 3-(Decyloxy)propanenitrile], the EC50 is reported as greater than 470 µM. For CCCCCCCCCCOCCC(=O)O [Example 7, 3-(Decyloxy)propanoic Acid], the EC50 was 18.7 µM. Compound COCCCCCCCCCCCC(=O)OC [Example 8, Methyl 12-Methoxydodecanoate] has an EC50 of 6.1 µM. In the case of CCOC(=O)CCCCCCCCCCCOC [Example 9, Ethyl 12-Methoxydodecanoate], the EC50 is reported as 16.6 µM. Compound COCCCCCCCCCCCC(N)=O [Example 12, 12-Methoxydodecanamide] has an EC50 of 192 µM. With COCCCCCCCCCCCC(N)=S [Example 13, 12-Methoxydodecanethioamide] the EC50 was greater than 400 µM. In the case of CCN(CC)C(=O)CCCCCCCCCCCOC [Example 15, N,N-Diethyl-12-methoxydodecanamide], the EC50 is reported as greater than 350 µM. COCCCCCCCCCCCC(=O)NCCc1ccccc1 [Example 16, 12-Methoxy-N-(2-phenylethyl) dodecanamide] showed an EC50 of 4.5 µM. CCCCCCCCCCOCCC(=O)N(CC)CC [Example 19, 3-(Decyloxy)-N,N-diethylpropanamide] gave an EC50 greater than 350 µM. In the case of CCCCCCCCCCOCCC(=O)NCc1ccccc1 [Example 20, 3-(Decyloxy)-N-(phenylmethyl)propanamide], the EC50 is reported as greater than 310 µM. In the case of CCOC(=O)CNC(=O)CCCCCCCCCCCOC [Example 21, N-(12-Methoxy-1-oxododecyl)-glycine, Ethyl ester], the EC50 is reported as 8.6 µM. CCOC(=O)CN(Cc1ccccc1)C(=O)CCCCCCCCCCCOC [Example 22, N-(12-Methoxy-1-oxododecyl)-N-(phenylmethyl)-glycine, Ethyl ester] was tested, and the EC50 was greater than 245 µM. For COCCCCCCCCCCCC(=O)NCC(=O)OC(C)(C)C [Example 23], the EC50 was 9.3 µM. CCOC(=O)CNC(=O)CNC(=O)CCCCCCCCCCCOC [Example 24, N-[N-(12-Methoxy-1-oxododecyl)glycyl]glycine, Ethyl ester] was tested, and the EC50 was greater than 260 µM. CCOC(=O)CN(CC(=O)OCC)C(=O)CCCCCCCCCCCOC [Example 25, N-(2-Ethoxy-2-oxoethyl)-N-(12-methoxy-1-oxododecyl)glycine, Ethyl ester] gave an EC50 greater than 240 µM. With CCOC(=O)CN(C)C(=O)CCCCCCCCCCCOC [Example 26, N-(12-Methoxy-1-oxododecyl)-N-methylglycine, Ethyl ester] the EC50 was greater than 300 µM. CCOC(=O)CN(C(=O)CCCCCCCCCCCOC)c1ccccc1 [Example 28, N-(12-Methoxy-1-oxododecyl)-N-phenylglycine, Ethyl ester] gave an EC50 greater than 250 µM. For CCCCCCCCCCOCCC(=O)NCC(=O)OCC [Example 29, N-[3-(Decyloxy)-1-oxopropyl]glycine, Ethyl ester], the EC50 was greater than 315 µM. Compound CCOC(=O)CCNC(=O)CCCCCCCCCCCOC [Example 30, N-(12-Methoxy-1-oxododecyl)-β-alanine, Ethyl ester] has an EC50 of 6.1 µM. CCOC(=O)[C@H](C)NC(=O)CCCCCCCCCCCOC [Example 31, N-(12-Methoxy-1-oxododecyl)-L-alanine, Ethyl ester] showed an EC50 of 24 µM. With CCOC(=O)[C@@H](C)NC(=O)CCCCCCCCCCCOC [Example 34, N-(12-Methoxy-1-oxododecyl)-D-alanine, Ethyl ester] the EC50 was greater than 300 µM. CCOC(=O)C(C)CNC(=O)CCCCCCCCCCCOC (centres unmarked) [Example 36, Ethyl 2-[[(12-methoxy-1-oxododecyl)amino]-2-methyl]propanoate] was tested, and the EC50 was 5.8 µM. For CCOC(=O)[C@H](C)CNC(=O)CCCCCCCCCCCOC [Example 39, Ethyl 3-[[(12-methoxy-1-oxododecyl)amino]-2R-methyl]propanoate], the EC50 was 6.7 µM. With CCOC(=O)C(CNC(=O)CCCCCCCCCCCOC)Cc1ccccc1 (stereo not drawn) [Example 42, Ethyl α-[[(12-Methoxy-1-oxododecyl)amino]methyl]benzenepropanoate] the EC50 was 6.4 µM. Work on CCOC(=O)[C@@H](NC(=O)CCCCCCCCCCCOC)[C@@H](C)CC [Example 45, N-(12-Methoxy-1-oxododecyl)-L-isoleucine, Ethyl ester] yielded an EC50 of less than 2.7 µM. For CCOC(=O)[C@H](NC(=O)CCCCCCCCCCCOC)[C@H](C)CC [Example 48, N-(12-Methoxy-1-oxododecyl)-D-isoleucine, Ethyl ester], the EC50 was greater than 265 µM. For COCCCCCCCCCCCC(=O)N[C@@H](Cc1ccccc1)C(=O)OC(C)(C)C [Example 50, N-(12-Methoxy-1-oxododecyl)-L-phenylalanine, 1,1-Dimethylethyl ester], the EC50 was 11.1 µM. CCOC(=O)[C@@H](Cc1ccccc1)NC(=O)CCCCCCCCCCCOC [Example 52, N-(12-Methoxy-1-oxododecyl)-D-phenylalanine, Ethyl ester] gave an EC50 greater than 245 µM. With COCCCCCCCCCCCC(=O)N[C@H](Cc1ccccc1)C(=O)OC(C)(C)C [Example 54, N-(12-Methoxy-1-oxododecyl)-D-phenylalanine, 1,1-Dimethylethyl ester] the EC50 was greater than 230 µM. Work on CCCCCCCCCCOCCC(=O)N[C@@H](Cc1ccccc1)C(=O)OCC [Example 55, N-(3-(Decycloxy)-1-oxopropyl]-L-phenylalanine, Ethyl ester] yielded an EC50 greater than 240 µM. For CCOC(=O)[C@H](CCC(=O)OCc1ccccc1)NC(=O)CCCCCCCCCCCOC [Example 59, N-(12-methoxy-1-oxododecyl)-L glutamic acid, 1-Ethyl 5-(Phenylmethyl) ester], the EC50 was 7.3 µM. In the case of CCOC(=O)[C@@H](CCC(=O)OCc1ccccc1)NC(=O)CCCCCCCCCCCOC [Example 62, N-(12-methoxy-1-oxododecyl)-D-glutamic acid, 1-Ethyl 5-(Phenylmethyl) ester], the EC50 is reported as greater than 205 µM. Work on CCOC(=O)[C@H](CCCCNC(=O)OCc1ccccc1Cl)NC(=O)CCCCCCCCCCCOC [Example 65, N6-[[(2-Chlorophenyl)methoxy]carbonyl]-N2-(12-methoxy-1oxododecyl)-L-lysine, Ethyl ester] yielded an EC50 of 7.4 µM. In the case of CCOC(=O)[C@H](Cc1c[nH]c2ccccc12)NC(=O)CCCCCCCCCCCOC [Example 71, N-(12-Methoxy-1-oxododecyl)-L-tryptophan, Ethyl ester], the EC50 is reported as 18 µM. With CCOC(=O)[C@@H](Cc1c[nH]c2ccccc12)NC(=O)CCCCCCCCCCCOC [Example 74, N-(12-Methoxy-1-oxododecyl)-D-tryptophan, Ethyl ester] the EC50 was greater than 221 µM. In the case of CCOC(=O)[C@@H](NC(=O)CCCCCCCCCCCOC)[C@@H](C)OCc1ccccc1 [Example 77, N-(12-methoxy-1-oxododecyl)-O-(phenylmethyl)-L-threonine, Ethyl ester], the EC50 is reported as 11.8 µM. For CCOC(=O)[C@H](NC(=O)CCCCCCCCCCCOC)[C@H](C)OCc1ccccc1 [Example 80, N-(12-methoxy-1-oxododecyl)-O-(phenylmethyl)-D-threonine, Ethyl ester], the EC50 was greater than 225 µM. Work on COCCCCCCCCCCCC(=O)NCC(=O)O [Example 81] yielded an EC50 of 27.5 µM. COCCCCCCCCCCCC(=O)N[C@@H](Cc1ccccc1)C(=O)O [Example 82, N-(12-Methoxy-1-oxododecyl)-L-phenylalanine] was tested, and the EC50 was 13 µM. In the case of COCCCCCCCCCCCC(=O)N[C@H](Cc1ccccc1)C(=O)O [Example 83, N-(12-Methoxy-1-oxododecyl)-D-phenylalanine], the EC50 is reported as greater than 265 µM. In the case of COCCCCCCCCCCCC#N [Example 84, 12-Methoxydodecanenitrile], the EC50 is reported as greater than 470 µM. Compound COCCCCCCCCCCCc1nnn[nH]1 [Example 85, 5-(11-Methoxyundecyl)-1H-tetrazole] has an EC50 greater than 390 µM. For CCn1nnnc1CCCCCCCCCCCOC [Example 86A, 1-Ethyl-5-(11-methoxyundecyl)-1H-tetrazole], the EC50 was greater than 350 µM. Compound CCn1nnc(CCCCCCCCCCCOC)n1 [Example 86B, 2-Ethyl-5-(11-methoxyundecyl)-2H-tetrazole] has an EC50 greater than 350 µM. Work on COCCCCCCCCCCCc1nnnn1Cc1ccccc1 [Example 87A, 5-(11-Methoxyundecyl)-1-(phenylmethyl)-1H-tetrazole] yielded an EC50 greater than 290 µM. With COCCCCCCCCCCCc1nnn(Cc2ccccc2)n1 [Example 87B, 5-(11-Methoxyundecyl)-2-(phenylmethyl)-2H-tetrazole] the EC50 was greater than 290 µM. Work on COCCCCCCCCCCCCO [Example 88, 12-Methoxydodecanol] yielded an EC50 greater than 450 µM. Compound COCCCCCCCCCCCC(C)=O [Example 89, 13-Methoxy-2-tridecanone] has an EC50 greater than 430 µM.

— US5929110A, “Fatty acid analogs and prodrugs” (G. D. Searle & Co., priority 1998, dated 1999)
